Experiments:
[1] = target: T1, human OATP1B1 transporter (Homo sapiens, UniProt Q9Y6L6); experiment: Uptake into OATP1B1 and empty vector transfected HEK293 cells; format: in vitro ADME; settings: for Uptake rate Mean: 2 min; for Uptake ratio: OATP1B1 vs control
T1 construct: expressed in transfected cells; host or cells: HEK293 (transient transfection)
T1 sequence (Q9Y6L6 1-691): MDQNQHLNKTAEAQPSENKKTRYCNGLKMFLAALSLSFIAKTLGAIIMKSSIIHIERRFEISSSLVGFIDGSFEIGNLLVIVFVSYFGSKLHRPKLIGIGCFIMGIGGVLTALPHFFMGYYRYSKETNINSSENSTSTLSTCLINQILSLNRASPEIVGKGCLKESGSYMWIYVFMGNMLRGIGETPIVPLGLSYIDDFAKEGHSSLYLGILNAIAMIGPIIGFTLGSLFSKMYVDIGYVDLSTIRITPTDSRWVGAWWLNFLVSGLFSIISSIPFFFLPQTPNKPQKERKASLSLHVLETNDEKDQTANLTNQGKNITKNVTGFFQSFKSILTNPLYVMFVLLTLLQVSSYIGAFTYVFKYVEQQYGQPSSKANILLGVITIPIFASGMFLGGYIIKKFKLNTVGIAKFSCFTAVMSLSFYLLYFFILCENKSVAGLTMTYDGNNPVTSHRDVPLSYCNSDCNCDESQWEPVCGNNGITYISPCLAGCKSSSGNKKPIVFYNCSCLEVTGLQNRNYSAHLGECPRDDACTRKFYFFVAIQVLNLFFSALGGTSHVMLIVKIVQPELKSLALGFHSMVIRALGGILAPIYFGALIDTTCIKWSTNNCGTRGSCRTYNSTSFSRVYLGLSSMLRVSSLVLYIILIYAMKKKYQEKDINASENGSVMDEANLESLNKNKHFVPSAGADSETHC
Method: Test compound (at 1 and 10 μM) was incubated with both SLC transporter-expressing HEK293 cells and control (empty vector) HEK293 cells for 2 min.

CYP2C9 = CYP2C9 (Homo sapiens, UniProt P11712); experiment: Cytochrome P450 reaction phenotyping, recombinant CYP2C9 (Bactosomes)
Method: Incubations were also performed using control Bactosomes™ (no P450 enzymes present) to reveal any non-enzymatic degradation. Control compounds known to be metabolised specifically by each P450 isoform were included. All incubations were performed singularly for each test compound.
Incubations were also performed using control Bactosomes™ (no P450 enzymes present) to reveal any non-enzymatic degradation. Control compounds known to be metabolised specifically by each P450 isoform were included. All incubations were performed singularly for each test compound. […] The reactions were stopped by transferring an aliquot of incubate to quench solvent at the appropriate time points, in a 1:3 ratio. The termination plates were centrifuged at 3,000 rpm for 20 min at 4° C. to precipitate the protein.

[2] = Stability in human liver microsomes without and with cimetidine or furafylline (Example 4); format: in vitro ADME; settings: human, liver microsomes, substrate 1 μM
Method: A minus cofactor control incubation was included for each compound tested where 0.1 M phosphate buffer pH 7.4 was added instead of NADPH (minus NADPH). […] The samples were analysed for mebendazole or phenacetin using LC-MS/MS.
A minus cofactor control incubation was included for each compound tested where 0.1 M phosphate buffer pH 7.4 was added instead of cofactor (minus NADPH). […] The samples were analysed for mebendazole or phenacetin using LC-MS/MS.

SXFS U-2197 = experiment: 2D monolayer CellTiter-Blue viability, soft tissue sarcoma U-2197; format: cell-based; settings: 72 h
Method: Seventeen compounds, including mebendazole (Batch no. […] Efficacy of compounds was assessed using CellTiter-Blue® Cell Viability Assay. Anti-tumor activity is expressed as absolute and relative IC50 and IC70 values, calculated by non-linear regression analysis.

in vitro = settings: human; for half-life at 1 μM: cryopreserved hepatocytes; for hepatocyte CLint at 1 µM: cryopreserved hepatocytes (suspension)
Method: The amount of test compound remaining at each time point was analysed by LC-MS/MS. Appropriate control compounds were also incubated.
The final incubation volume was 500 μL. Appropriate control compounds were included, alongside appropriate vehicle control.
The reactions were stopped by transferring 50 μL of incubate to 100 μL acetonitrile containing internal standard at the appropriate time points (0, 5, 10, 20, 40 and 60 min). The termination plates were centrifuged at 2500 rpm at 4° C. for 30 min to precipitate the protein.

[3] = pH 7.4, with cimetidine 30 μM, plus 30 μM cimetidine
[4] = pH 7.4, with cimetidine 100 μM, plus 100 μM cimetidine
[5] = pH 7.4, with cimetidine 300 μM, plus 300 μM cimetidine

Chain of CYP2C9 (P11712 whole entry, canonical isoform): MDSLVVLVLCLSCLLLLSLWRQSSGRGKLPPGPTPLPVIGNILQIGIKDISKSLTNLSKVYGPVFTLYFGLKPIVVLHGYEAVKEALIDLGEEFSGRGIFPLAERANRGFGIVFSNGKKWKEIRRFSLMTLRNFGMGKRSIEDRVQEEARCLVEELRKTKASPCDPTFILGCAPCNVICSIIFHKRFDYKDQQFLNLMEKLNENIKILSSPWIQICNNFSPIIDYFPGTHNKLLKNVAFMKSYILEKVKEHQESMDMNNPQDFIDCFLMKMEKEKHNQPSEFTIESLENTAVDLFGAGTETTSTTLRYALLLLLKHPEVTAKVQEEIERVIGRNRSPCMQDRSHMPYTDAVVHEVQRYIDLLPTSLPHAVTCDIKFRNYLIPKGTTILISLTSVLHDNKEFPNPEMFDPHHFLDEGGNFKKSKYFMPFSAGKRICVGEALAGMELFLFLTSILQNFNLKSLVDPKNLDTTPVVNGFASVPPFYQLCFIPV

SMILES: COC(=O)Nc1nc2ccc(C(=O)c3ccccc3)cc2[nH]1 [Mebendazole, methyl N-(6-benzoyl-1H-benzimidazol-2-yl)carbamate]
- Uptake rate Mean ([1]; 1 μM, OATP1B1 HEK293 cells): 42.5 pmol/mg
- Uptake ratio ([1]; 1 μM): 0.9
- Uptake rate Mean ([1]; 1 μM, control (empty vector) HEK293 cells): 49.0 pmol/mg
- Uptake rate Mean ([1]; 10 μM, OATP1B1 HEK293 cells): 426 pmol/mg
- Uptake ratio ([1]; 10 μM): 0.9
- Uptake rate Mean ([1]; 10 μM, control (empty vector) HEK293 cells): 461 pmol/mg
- substrate of the human OATP1B1 transporter ([1]; 1 and 10 μM): not a substrate
- Compound Remaining (% of 0 min) (CYP2C9; CYP2C9, 5 μM, 0 min): 100 % of 0 min
- Compound Remaining (% of 0 min) (CYP2C9; CYP2C9, 5 μM, 5 min): 108 % of 0 min
- Compound Remaining (% of 0 min) (CYP2C9; CYP2C9, 5 μM, 15 min): 108 % of 0 min
- Compound Remaining (% of 0 min) (CYP2C9; CYP2C9, 5 μM, 30 min): 109 % of 0 min
- Compound Remaining (% of 0 min) (CYP2C9; CYP2C9, 5 μM, 45 min): 105 % of 0 min
- % compound remaining (CYP2C9; CYP2C9, 5 μM, time not stated): > 87.5%
- t1/2 (CYP2C9; CYP2C9, substrate 5 μM): >2.25 h
- half-life at 5 μM (CYP2C9; human, recombinant CYP2C9 (Bactosomes), pH 7.4): > 2.25 h
- half-life at 1 μM [2, 3]: 1.28 h
- microsomal CLint at 1 μM [2, 3]: 18 µL/min/mg
- half-life at 1 μM [2, 4]: 1.3 h
- microsomal CLint at 1 μM [2, 4]: 17.8 µL/min/mg
- half-life at 1 μM [2, 5]: 1.54 h
- microsomal CLint at 1 μM [2, 5]: 15 µL/min/mg
- microsomal CLint at 1 μM ([2]; pH 7.4, with furafylline 3 μM, plus 3 μM furafylline): 2.84 µL/min/mg
- microsomal CLint at 1 μM ([2]; pH 7.4, with furafylline 10 μM, plus 10 μM furafylline): 0.232 µL/min/mg
- microsomal CLint at 1 μM ([2]; pH 7.4, with furafylline 30 μM, plus 30 μM furafylline): 0.336 µL/min/mg
- half-life at 1 μM ([2]; pH 7.4, no inhibitor): 1.04 h
- microsomal CLint at 1 μM ([2]; pH 7.4, no inhibitor): 22.2 µL/min/mg
- Test/Control (%) at Drug Concentration (SXFS U-2197; U-2197, 1.0E+00 μM): 42%
- Test/Control (%) at Drug Concentration (SXFS U-2197; U-2197, 1.0E+01 μM): 37%
- Test/Control (%) at Drug Concentration (SXFS U-2197; U-2197, 1.0E+02 μM): 18%
- Test/Control (%) at Drug Concentration (SXFS U-2197; U-2197, 1.0E−01 μM): 91%
- Test/Control (%) at Drug Concentration (SXFS U-2197; U-2197, 1.0E−02 μM): 93%
- Test/Control (%) at Drug Concentration (SXFS U-2197; U-2197, 3.2E+00 μM): 44%
- Test/Control (%) at Drug Concentration (SXFS U-2197; U-2197, 3.2E+01 μM): 36%
- Test/Control (%) at Drug Concentration (SXFS U-2197; U-2197, 3.2E−01 μM): 79%
- Test/Control (%) at Drug Concentration (SXFS U-2197; U-2197, 3.2E−02 μM): 93%
- Test/Control (%) at Drug Concentration (SXFS U-2197; U-2197, 3.2E−03 μM): 93%
- half-life at 1 μM (in vitro): 1.92 h
- hepatocyte CLint at 1 µM (in vitro): 12.1 ± 0.601 µL/min/1e6 cells
- hepatocyte CLint at 1 µM (in vitro; with cimetidine 30 µM): 24.8 ± 1.82 µL/min/1e6 cells
- hepatocyte CLint at 1 µM (in vitro; with cimetidine 100 µM): 18 ± 1.19 µL/min/1e6 cells
- hepatocyte CLint at 1 µM (in vitro; with cimetidine 300 µM): 24.8 ± 2.36 µL/min/1e6 cells
- hepatocyte CLint at 1 µM (in vitro; with fluvoxamine 3 µM): 8.14 ± 1.53 µL/min/1e6 cells
- hepatocyte CLint at 1 µM (in vitro; with fluvoxamine 10 μM): 10.8 ± 2.32 µL/min/1e6 cells
- half-life at 1 μM (in vitro; with cimetidine 30 μM): 0.932 h
- half-life at 1 μM (in vitro; with cimetidine 100 μM): 1.29 h
- half-life at 1 μM (in vitro; with cimetidine 300 μM): 0.932 h
- half-life at 1 μM (in vitro; with fluvoxamine 3 μM): 2.83 h
- half-life at 1 μM (in vitro; with fluvoxamine 10 μM): 2.13 h
- half-life at 1 μM (in vitro; with mexiletine 10 μM): 5.1 h
- half-life at 1 μM (in vitro; with mexiletine 30 μM): 2.2 h
- half-life at 1 μM (in vitro; with mexiletine 100 μM): 2 h

From patent US20220125765A1, “PHARMACEUTICAL COMBINATIONS COMPRISING MEBENDAZOLE AND A STRONG OR MODERATE CYP1A2 INHIBITOR” (ZEPHAPHARM LTD, priority 2019, published 2022)
